The record followed here is patent publication US8969383B2, “Picolinamide derivatives as TTX-S blockers” (RaQualia Pharma Inc., priority 2009, dated 2015).

A value given as a limit tells only on which side of the number the result lay.

One assay deals with T1, human Nav1.3 (Homo sapiens, UniProt Q9NY46).
T1 construct: expressed in transfected cells; host or cells: HEK293
The assay can be described thus: FRET assay, human Nav1.3 channels expressed in HEK293 cells. It is filed as cell-based. The conditions noted are these: HEK293 cells expressing human NaV1.3, veratridine-opened channels. As for the experimental part: (§1) The ability of the picolinamide derivatives of the formula (I) to inhibit the NaV1.3,Nav1.7 and Nav1.5 channels was measured by FRET assay and electrophysiology assay described below.
(§2) This screen is used to determine the effects of compounds on human Nav1.3, human Nav1.7, and human Nav1.5 channels, utilising the cell imaging technology by Hamamatsu Photonics's Functional Drug Screening System (FDSS). This experiment is based on FRET (Fluorescence Resonance Energy Transfer) and uses two fluorescent molecules. The first molecule, Oxonol (DiSBAC2(3)), is a highly fluorescent, negatively charged, hydrophobic ion that “senses” the trans-membrane electrical potential. In response to changes in membrane potential, it can rapidly redistribute between two binding sites on opposite sides of the plasma membrane. The voltage dependent redistribution is transduced into a ratiometric fluorescent readout via a second fluorescent molecule (Coumarin (CC2-DMPE)) that binds specifically to one face of the plasma membrane and functions as a FRET partner to the mobile voltage-sensing ion. To enable the assay to work, the channels have to be pharmacologically held in the open state. This is achieved by treating the cells with veratridine.
Each HEK293 cells expressing human NaV1.3 channels and HEK293 cells expressing human NaV1.5 channels were grown in T225 flasks, in a 5% CO2 humidified incubator to about 80% confluence. Media composition consisted of Dulbecco's Modified Eagle Medium (high glucose), 10% fetal calf serum (FCS), 100 units/ml Penicillin, 100 microgram/ml Streptomycin and 500 microgram/ml Geneticine.
(§3) • Seed each cell lines (1.5×10^4 cells/well) into poly-D-lysine coated 384-well plates prior to experimentation. • Incubate at 37° C. in 5% CO2 for 24 hours. • Wash each well with buffer #1 (140 mM NaCl, 4.5 mM KCl, 10 mM D-Glucose, 2 mM CaCl2, 1 mM MgCl2, 10 mM HEPES, pH 7.4 adjusted with NaOH) twice using plate washer. • Add 1st loading solution containing 5 μM CC2-DMPE and 0.02% Pluronic F-127 in buffer #1. • Incubate the plate at room temperature in dark for 0.5 hours. • Wash each well with buffer #2 (160 mM Choline, 10 mM D-Glucose, 0.1 mM CaCl2, 1 mM MgCl2, 10 mM HEPES, pH 7.4 adjusted with KOH) twice using plate washer. • Add 2nd loading solution containing 15 μM DiSBAC2(3), 0.5 mM VABSC-1, 10 μM veratridine and 0.004% Pluronic F-127 in buffer #2. • Add compound solutions into the assay plate and leave the plate for 30 minutes under the dark at room temperature. • Measure by FDSS.
(§4) The data was analyzed and reported as normalized ratios of intensities measured in the 465 nm and 575 nm channels. The process of calculating these ratios was performed as follows:
(§5) “FI465B”=the mean of fluorescence intensity as baseline (before Na+ ligand addition) at 465 nm
(§6) “FI575B”=the mean of fluorescence intensity as baseline (before Na+ ligand addition) at 575 nm
(§7) “FI465Max”=maximum fluorescence intensity at 465 nm after Na+ stimulation
(§8) “FI575 Min”=minimum fluorescence intensity at 575 nm after Na+ stimulation
(§9) This analysis was performed using a computerized specific program designed for FDSS generated data. Fluorescence ratio values were plotted using XLfit to determine an IC50 value for each compound.

The target of a further assay is T2, human Nav1.7 (Homo sapiens, UniProt Q15858).
T2 construct: expressed in transfected cells; host or cells: CHO
The assay can be described thus: FRET assay, human Nav1.7 channels expressed in CHO cells. It is filed as cell-based. The conditions noted are these: CHO cells expressing human NaV1.7, veratridine-opened channels. The procedure:
as §1, §2
CHO cells expressing human NaV1.7 channels were grown in T225 flasks, in a 5% CO 2 humidified incubator to about 80% confluence. Media composition consisted of HAM/F12 with Glutamax 1.10% fetal calf serum (FCS), 100 units/ml Penicillin and 100 microgram/ml Hygromycin.
as §3, §4, §5, §6, §7, §8, §9

T2 sequence (Q15858 whole entry): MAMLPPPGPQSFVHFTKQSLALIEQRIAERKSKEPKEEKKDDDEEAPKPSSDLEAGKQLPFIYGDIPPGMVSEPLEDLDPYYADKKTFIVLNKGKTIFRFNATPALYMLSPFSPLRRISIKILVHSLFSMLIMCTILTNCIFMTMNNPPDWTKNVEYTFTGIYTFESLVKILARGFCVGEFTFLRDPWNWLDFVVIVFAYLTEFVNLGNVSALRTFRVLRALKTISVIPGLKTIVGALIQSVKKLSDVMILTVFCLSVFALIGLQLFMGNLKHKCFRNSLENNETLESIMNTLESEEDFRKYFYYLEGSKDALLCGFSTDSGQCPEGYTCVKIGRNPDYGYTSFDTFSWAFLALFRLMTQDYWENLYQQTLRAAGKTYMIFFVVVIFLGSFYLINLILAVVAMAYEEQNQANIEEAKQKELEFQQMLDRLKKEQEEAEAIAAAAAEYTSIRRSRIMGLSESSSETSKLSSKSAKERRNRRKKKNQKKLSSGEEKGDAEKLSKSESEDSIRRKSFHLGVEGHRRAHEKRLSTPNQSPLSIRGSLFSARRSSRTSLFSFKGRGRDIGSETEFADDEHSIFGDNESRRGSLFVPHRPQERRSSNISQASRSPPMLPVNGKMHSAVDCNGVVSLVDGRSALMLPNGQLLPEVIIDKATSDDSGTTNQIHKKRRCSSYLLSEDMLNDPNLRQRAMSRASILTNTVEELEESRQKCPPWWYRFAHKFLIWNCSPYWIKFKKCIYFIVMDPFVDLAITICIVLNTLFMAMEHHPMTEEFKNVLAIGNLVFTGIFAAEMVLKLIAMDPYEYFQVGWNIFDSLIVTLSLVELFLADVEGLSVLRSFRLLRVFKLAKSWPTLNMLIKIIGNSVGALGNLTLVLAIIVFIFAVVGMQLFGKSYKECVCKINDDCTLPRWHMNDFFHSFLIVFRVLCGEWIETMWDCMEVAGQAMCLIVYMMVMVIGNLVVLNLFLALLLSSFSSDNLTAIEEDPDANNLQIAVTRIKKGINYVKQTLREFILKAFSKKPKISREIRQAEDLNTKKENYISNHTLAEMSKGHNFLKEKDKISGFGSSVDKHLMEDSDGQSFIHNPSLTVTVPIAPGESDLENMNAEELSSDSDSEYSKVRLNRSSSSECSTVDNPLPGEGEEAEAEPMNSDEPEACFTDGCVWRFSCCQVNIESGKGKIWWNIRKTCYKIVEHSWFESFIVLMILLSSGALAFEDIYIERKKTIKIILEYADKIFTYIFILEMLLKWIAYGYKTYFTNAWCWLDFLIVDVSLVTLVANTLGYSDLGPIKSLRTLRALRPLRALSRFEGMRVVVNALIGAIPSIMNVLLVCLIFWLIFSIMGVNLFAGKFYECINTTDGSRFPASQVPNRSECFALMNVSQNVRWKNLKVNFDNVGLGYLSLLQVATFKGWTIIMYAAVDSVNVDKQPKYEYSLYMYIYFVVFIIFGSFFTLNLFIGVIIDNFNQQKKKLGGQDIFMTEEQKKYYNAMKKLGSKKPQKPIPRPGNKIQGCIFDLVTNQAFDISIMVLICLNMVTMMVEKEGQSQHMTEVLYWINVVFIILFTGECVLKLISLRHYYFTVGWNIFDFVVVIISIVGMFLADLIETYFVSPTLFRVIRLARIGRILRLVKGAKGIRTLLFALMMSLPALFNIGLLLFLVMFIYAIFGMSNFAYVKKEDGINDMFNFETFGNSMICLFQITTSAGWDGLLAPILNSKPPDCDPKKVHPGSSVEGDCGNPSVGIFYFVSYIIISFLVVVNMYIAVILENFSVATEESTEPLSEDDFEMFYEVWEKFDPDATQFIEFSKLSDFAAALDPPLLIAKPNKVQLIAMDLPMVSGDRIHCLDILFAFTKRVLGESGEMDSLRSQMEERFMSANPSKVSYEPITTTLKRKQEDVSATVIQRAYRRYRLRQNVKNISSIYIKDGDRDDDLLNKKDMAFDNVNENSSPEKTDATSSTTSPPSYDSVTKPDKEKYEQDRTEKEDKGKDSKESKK
T1 sequence (Q9NY46 whole entry): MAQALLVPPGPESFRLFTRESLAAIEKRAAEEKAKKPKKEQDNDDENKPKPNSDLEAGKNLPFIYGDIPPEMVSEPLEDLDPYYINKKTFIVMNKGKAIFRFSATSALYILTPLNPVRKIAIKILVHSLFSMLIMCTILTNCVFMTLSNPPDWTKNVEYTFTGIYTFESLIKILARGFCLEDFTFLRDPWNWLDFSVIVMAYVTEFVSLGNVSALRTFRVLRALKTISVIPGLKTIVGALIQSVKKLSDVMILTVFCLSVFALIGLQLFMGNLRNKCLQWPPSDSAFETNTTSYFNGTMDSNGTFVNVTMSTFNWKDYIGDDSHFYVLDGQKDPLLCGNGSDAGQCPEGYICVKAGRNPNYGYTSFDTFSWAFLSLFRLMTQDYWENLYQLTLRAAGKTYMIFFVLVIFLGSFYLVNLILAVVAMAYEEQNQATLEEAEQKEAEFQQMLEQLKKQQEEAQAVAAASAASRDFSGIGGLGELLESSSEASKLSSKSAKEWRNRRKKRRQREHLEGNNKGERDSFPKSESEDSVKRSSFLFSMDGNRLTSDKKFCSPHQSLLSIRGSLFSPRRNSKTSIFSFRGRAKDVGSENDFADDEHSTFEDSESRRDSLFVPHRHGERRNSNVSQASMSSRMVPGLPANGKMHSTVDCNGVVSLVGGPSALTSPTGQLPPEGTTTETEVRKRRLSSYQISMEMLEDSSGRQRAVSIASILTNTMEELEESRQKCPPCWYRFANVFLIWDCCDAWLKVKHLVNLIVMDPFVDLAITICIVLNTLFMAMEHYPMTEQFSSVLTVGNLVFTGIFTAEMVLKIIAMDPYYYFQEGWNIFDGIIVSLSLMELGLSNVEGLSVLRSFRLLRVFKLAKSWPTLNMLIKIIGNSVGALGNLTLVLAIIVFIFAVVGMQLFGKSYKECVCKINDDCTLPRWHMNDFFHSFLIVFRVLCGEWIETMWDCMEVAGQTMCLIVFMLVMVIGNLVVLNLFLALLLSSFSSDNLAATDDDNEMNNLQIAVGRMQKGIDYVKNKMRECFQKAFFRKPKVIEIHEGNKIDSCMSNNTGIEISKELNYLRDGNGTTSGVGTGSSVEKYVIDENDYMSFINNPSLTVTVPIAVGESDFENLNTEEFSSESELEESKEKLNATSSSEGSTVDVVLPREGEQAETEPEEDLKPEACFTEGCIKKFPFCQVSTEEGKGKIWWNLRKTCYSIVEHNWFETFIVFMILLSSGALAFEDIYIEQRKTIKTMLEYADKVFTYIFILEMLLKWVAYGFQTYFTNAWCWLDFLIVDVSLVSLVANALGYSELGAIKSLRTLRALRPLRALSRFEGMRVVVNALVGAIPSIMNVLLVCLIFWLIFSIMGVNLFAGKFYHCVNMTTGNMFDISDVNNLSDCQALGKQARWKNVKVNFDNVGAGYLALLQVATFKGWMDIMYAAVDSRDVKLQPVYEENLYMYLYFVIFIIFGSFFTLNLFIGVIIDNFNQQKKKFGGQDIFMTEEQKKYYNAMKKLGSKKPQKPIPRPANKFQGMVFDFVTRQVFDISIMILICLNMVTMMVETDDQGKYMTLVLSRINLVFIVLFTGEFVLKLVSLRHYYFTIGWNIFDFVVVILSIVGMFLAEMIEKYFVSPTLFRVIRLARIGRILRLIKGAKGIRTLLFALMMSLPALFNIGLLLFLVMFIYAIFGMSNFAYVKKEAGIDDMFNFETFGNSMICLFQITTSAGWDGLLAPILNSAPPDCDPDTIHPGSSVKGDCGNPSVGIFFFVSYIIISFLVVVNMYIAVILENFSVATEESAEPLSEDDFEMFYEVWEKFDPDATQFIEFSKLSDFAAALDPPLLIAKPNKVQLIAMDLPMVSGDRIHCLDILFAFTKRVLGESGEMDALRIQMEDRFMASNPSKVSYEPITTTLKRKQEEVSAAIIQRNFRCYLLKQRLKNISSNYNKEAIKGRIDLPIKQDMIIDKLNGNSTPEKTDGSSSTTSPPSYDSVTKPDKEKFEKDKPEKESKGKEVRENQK

As a reminder, the IC50 is the concentration that gives 50% inhibition. As to `O=C(NCCN1CCOCC1)c1ncccc1OC[C@H]1CCCN1C(=O)c1cccc(C(F)(F)F)c1` [Example 68, (R)-N-(2-morpholinoethyl)-3-((1-(3-(trifluoromethyl)benzoyl)pyrrolidin-2-yl)methoxy) picolinamide], the half-inhibitory concentration (IC50) against human Nav1.3 and at human Nav1.7 was no more than 500 nM throughout.

For `O=C(NCCO)c1ncccc1OC[C@H]1CCCN1C(=O)c1cccc(C(F)(F)F)c1` [Example 69, (R)-N-(2-hydroxyethyl)-3-((1-(3-(trifluoromethyl)benzoyl)pyrrolidin-2-yl)methoxy) picolinamide], the IC50 at human Nav1.3 and at human Nav1.7 was no more than 500 nM throughout.
